In brackets after ≈: the same amount, converted by molar mass.

For test [1], the system named is L1210. Briefly: Tested for the effect of stereochemistry on the growth of L1210 mouse leukemia cell line in vitro. Type of test: functional, cell-based.
Test [2] has as its system Mus musculus. Briefly: Tested for body weight of CDF1 mice bearing P388 leukemia at dose of 100 mg/kg/day on day 1. Type of test: functional.
Test [3] deals with Mus musculus. In words: Tested for body weight of CDF1 mice bearing P388 leukemia at dose of 100 mg/kg/day on day 5. It is filed as functional.
The test system of test [4] is Mus musculus. In words: Tested for body weight of CDF1 mice bearing P388 leukemia at dose of 20 mg/kg/day on day 1. Type of test: functional.
For test [5], the system named is Mus musculus. Briefly: Tested for body weight of CDF1 mice bearing P388 leukemia at dose of 20 mg/kg/day on day 5. It is filed as functional.
Test [6] has as its system Mus musculus. In words: Tested for body weight of CDF1 mice bearing P388 leukemia at dose of 250 mg/kg/day on day 5. Type of test: functional.
The subject of test [7] is Mus musculus. Briefly: Tested for mean survival time of tested group to that of mean survival time of control group of mice bearing P388 leukemia at dose of 100 mg/kg/day. Type of test: functional.
The subject of test [8] is Mus musculus. Briefly: Tested for mean survival time of tested group to that of mean survival time of control group of mice bearing P388 leukemia at dose of 250 mg/kg/day. Type of test: functional.
Test [9] deals with Mus musculus. Briefly: Tested for mean survival time of tested group to that of mean survival time of control group of mice bearing P388 leukemia at dose of 20 mg/kg/day. It is filed as functional.
The test system of test [10] is Mus musculus. In words: Tested for body weight of CDF1 mice bearing P388 leukemia at dose of 250 mg/kg/day on day 1. Type of test: functional.
For another test, the system named is KB. In words: Concentration at 50 percent inhibition of cell growth against human cancer KB cell line in vitro. Type of test: functional, cell-based.
Test [11] has as its system PC10. Briefly: Concentration at 50 percent inhibition of cell growth against human […] cell line in vitro. Type of test: functional, cell-based.
The test system of test [12] is L1210. In words: Concentration at 50 percent inhibition of cell growth against mouse leukemia 1210 cell line in vitro. It is filed as functional, cell-based.
Another test deals with CCRF-CEM. In words: Concentration at 50 percent inhibition of cell growth against human leukemia CCRF CEM cell line in vitro. It is filed as functional, cell-based.
The subject of test [13] is PC10. In words: Concentration at 50 percent inhibition of cell growth against human cancer PC10 cell line in vitro. Type of test: functional, cell-based.

By IC50 is commonly meant the point on the concentration scale where inhibition reaches its midpoint. As to `C[C@@H](O)[C@@H](N)C(=O)O` [D-allothreonine], the IC50 in the test on L1210 [1] was > 100 µg/mL.
A word on the T/C: it is the result in the treated group divided by that in the control group, in per cent. In the case of `C[C@H](O)[C@H](N)C(=O)O`, the Body weight is on record as 21.3 g with Mus musculus [2]; 21.7 g in the test on Mus musculus [3]; 22 g in the test with Mus musculus [4]; 22 g in the test on Mus musculus [5]; 22 g with Mus musculus [6]; 22.7 g in the test on Mus musculus [10]. Besides, the T/C with Mus musculus [7] was found to be 122%; in the test with Mus musculus [8] it was 170%; in the test on Mus musculus [9], 114%. Moreover, the IC50 in the test on L1210 [1] came out at 2.8 µg/mL (≈ 23.5 µM).
`NC(C(=O)O)C(O)C(F)F` (racemic): the IC50 in the test with KB came out at 2.7 µg/mL (≈ 17.4 µM); in the test with PC10 [11] it was 5.1 µg/mL (≈ 32.9 µM); with L1210 [12] it was 1.1 µg/mL (≈ 7.09 µM); in the test on L1210 [1] it was 3.3 µg/mL (≈ 21.3 µM); in the test with CCRF-CEM it was 1.7 µg/mL (≈ 11 µM).
With `O=c1[nH]cc(F)c(=O)[nH]1` [FLUOROURACIL], the IC50 was 42 µg/mL (≈ 323 µM) in the test on PC10 [13], 12.1 µg/mL (≈ 93 µM) with KB, 0.36 µg/mL (≈ 2.77 µM) in the test with L1210 [12] and 0.95 µg/mL (≈ 7.3 µM) in the test with CCRF-CEM.

(Values after ChEMBL document CHEMBL1125989, “Preparation and evaluation of optically active 4,4-difluorothreonine as a potent novel antitumor material” (Bioorg Med Chem Lett, 1991).)
